Experiments:
tau/amyloid = test: Tx/tau/amyloid correlation; type: binding
Dopamine transp. = Dopamine transp. (Homo sapiens, UniProt Q01959); test: CNS selectivity panel: Dopamine transp.; type: binding; conditions: 1 uM
AchE = AchE (Homo sapiens, UniProt P22303); test: AchE activity (IC50); type: biochemical
[1] = GM Intensity (comp. with W372); type: binding; conditions: compared with W372
Norepinephrine transp. = Norepinephrine transp. (Homo sapiens, UniProt P23975); test: CNS selectivity panel: Norepinephrine transp.; type: binding; conditions: 1 uM
Norepinephrine transp., sequence (P23975 whole entry): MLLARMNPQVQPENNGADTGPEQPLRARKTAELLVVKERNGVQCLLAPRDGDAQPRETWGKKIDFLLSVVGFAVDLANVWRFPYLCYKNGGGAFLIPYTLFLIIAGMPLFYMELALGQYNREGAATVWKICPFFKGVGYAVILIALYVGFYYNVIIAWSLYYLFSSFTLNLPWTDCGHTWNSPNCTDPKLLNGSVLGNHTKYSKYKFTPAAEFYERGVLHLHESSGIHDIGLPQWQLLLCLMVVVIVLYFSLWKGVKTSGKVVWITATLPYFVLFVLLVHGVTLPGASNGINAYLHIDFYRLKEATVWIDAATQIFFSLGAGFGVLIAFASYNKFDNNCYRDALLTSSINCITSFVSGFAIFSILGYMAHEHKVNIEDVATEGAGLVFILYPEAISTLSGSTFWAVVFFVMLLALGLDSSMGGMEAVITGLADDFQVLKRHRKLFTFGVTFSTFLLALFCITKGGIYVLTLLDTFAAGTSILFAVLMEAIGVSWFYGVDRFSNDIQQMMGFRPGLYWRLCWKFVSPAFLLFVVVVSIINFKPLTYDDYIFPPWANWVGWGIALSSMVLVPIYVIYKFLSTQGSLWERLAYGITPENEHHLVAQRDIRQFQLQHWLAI

MAO-A = target: T1, MAO-A (Homo sapiens, UniProt P21397); test: MAO inhibition, MAO-A; type: biochemical
T1 sequence (P21397 1-527): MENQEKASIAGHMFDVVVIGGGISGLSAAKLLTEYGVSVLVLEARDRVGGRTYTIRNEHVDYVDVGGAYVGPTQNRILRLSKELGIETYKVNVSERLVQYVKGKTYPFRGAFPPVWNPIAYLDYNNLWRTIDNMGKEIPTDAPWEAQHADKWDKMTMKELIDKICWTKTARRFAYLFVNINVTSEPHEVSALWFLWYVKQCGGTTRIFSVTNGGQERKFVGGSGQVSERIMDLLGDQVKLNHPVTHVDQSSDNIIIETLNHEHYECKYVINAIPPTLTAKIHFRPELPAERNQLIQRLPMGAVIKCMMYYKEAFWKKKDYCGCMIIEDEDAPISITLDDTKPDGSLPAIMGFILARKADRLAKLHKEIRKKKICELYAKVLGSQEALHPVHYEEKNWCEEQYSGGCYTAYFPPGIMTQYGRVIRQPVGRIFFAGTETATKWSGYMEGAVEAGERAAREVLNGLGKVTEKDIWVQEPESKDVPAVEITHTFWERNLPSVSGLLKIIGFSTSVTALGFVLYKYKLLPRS

[2] = Brain uptake in rats and mice; type: in vivo
[3] = Brain uptake after intravenous injection into mice; type: in vivo; conditions: injected intravenously into mice
Excerpt: (§1) When injected intravenously into mice, the Carbazole based compounds; in particular T807, T805 and T794 have shown excellent brain uptake. These compounds also display high binding affinity to tau fibrils. […] In neuropathological staining, compounds of the present invention stained amyloid plaques and/or tau aggregates.

Serotonin 5-HT2c = target: T2, Serotonin 5-HT2c (Homo sapiens, UniProt P28335); test: CNS selectivity panel: Serotonin 5-HT2c; type: binding; conditions: 1 uM
T2 sequence (P28335 33-458): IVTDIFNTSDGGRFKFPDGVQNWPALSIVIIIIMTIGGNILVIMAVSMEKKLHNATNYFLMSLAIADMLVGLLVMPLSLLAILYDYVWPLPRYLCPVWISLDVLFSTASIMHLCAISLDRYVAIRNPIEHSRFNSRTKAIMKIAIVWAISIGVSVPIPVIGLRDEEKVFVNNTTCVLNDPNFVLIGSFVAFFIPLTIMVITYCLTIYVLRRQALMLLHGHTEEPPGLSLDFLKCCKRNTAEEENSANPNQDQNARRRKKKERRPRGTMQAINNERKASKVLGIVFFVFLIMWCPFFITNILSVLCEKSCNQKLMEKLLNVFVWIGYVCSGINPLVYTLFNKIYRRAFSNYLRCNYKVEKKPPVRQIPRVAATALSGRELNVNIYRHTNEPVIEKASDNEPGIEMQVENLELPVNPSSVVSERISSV

Glutamate, NMDA = test: CNS selectivity panel: Glutamate, NMDA; type: binding; conditions: 1 uM
[4] = background in normal brain; type: binding
Excerpt: (§2) Furthermore, the selectivity can be evaluated in brains containing only Aβ plaques/no tau aggregates, Aβ plaques/and tau aggregates, and control brains. Unfortunately, there are no AD brains with only tau and no Aβ present. By testing radiolabeled tracers in these brain sections, one can more quantitative evaluate the relative binding strength (signal strength) and selectivity of various test compounds as they all contain the same radioactive tracer. For examples, if a test tracer binds only to tau, and not amyloid, it should show no signal in the Aβ plaques only brain sections. If a compound binds only to amyloid, it should show uptake in both types of brains. The difficulty of identifying and further quantifying selective compounds lies in the relative abundance of amyloid vs. tau, which is difficult to measure.

tau/Ab = test: selectivity (tau/Ab); type: binding
Excerpt: as §2

human hepatocytes = test: Metabolism in human hepatocytes; type: in vitro ADME
Monoamine transp. = test: CNS selectivity panel: Monoamine transp.; type: binding; conditions: 1 uM
MAO-B = target: T3, MAO-B (Homo sapiens, UniProt P27338); test: MAO inhibition, MAO-B; type: biochemical
T3 sequence (P27338 1-520): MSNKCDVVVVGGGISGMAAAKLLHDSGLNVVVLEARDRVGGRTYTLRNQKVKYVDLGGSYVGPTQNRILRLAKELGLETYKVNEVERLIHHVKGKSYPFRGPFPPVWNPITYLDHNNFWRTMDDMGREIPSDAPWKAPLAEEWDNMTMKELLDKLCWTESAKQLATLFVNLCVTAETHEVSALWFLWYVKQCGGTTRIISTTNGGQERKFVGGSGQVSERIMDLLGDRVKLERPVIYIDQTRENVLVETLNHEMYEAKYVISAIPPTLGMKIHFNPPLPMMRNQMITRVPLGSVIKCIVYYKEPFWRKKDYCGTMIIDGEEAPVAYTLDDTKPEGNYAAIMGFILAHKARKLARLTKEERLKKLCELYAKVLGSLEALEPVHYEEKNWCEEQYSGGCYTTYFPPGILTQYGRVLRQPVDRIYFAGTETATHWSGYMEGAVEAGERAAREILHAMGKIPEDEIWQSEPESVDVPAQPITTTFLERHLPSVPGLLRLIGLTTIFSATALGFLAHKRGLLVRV

tau = target: T4, tau (Homo sapiens, UniProt P10636); test: KD (tau) binding; conditions: FIG. 2 legend, [18F] tracer; read-out: KD
T4 construct: Native forms of tau (various isoforms, hyperphosphorylated) and amyloid aggregates are present in brain sections and therefore preferred for compound testing
T4 sequence (P10636 623-758 limits assumed): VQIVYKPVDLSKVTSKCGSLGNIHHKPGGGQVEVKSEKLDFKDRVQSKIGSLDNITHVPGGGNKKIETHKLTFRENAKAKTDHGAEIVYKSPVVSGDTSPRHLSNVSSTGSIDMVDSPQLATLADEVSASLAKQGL
Excerpt: as §1, §2

AchE, sequence (P22303 32-614): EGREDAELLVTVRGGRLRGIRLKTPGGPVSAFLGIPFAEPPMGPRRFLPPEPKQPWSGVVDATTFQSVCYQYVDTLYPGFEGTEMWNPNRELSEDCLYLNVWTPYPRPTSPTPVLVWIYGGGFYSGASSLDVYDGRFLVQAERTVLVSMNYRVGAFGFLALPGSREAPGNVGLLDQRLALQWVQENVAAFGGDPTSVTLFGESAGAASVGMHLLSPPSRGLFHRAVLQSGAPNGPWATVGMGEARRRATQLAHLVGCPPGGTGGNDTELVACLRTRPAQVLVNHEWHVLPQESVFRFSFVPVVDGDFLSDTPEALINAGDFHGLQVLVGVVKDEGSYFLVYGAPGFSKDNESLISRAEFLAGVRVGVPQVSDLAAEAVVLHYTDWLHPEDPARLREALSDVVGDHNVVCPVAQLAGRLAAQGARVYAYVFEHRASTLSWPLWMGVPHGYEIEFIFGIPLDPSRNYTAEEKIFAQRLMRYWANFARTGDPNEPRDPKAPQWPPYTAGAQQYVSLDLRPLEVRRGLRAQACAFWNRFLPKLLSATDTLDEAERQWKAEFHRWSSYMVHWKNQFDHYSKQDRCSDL
Dopamine transp., sequence (Q01959 whole entry): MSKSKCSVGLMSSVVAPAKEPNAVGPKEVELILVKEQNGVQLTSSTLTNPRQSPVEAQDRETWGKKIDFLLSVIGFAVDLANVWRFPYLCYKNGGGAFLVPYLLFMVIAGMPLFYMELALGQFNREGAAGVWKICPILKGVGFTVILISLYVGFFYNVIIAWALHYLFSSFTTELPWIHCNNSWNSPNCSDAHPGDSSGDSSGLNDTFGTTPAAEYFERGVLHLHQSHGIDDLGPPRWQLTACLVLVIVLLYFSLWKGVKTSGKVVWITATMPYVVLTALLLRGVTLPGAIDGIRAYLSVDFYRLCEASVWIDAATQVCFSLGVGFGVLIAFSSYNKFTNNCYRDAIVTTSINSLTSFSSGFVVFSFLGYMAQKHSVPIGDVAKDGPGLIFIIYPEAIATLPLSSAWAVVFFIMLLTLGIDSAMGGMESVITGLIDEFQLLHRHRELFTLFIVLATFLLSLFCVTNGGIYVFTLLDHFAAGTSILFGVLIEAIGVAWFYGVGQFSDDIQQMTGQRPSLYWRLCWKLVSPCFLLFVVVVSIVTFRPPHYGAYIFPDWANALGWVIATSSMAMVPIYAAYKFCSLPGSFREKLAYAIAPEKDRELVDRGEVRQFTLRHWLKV

FCCCc1ccc2c(c1)[nH]c1ccncc12 [T794, 7-(3-Fluoropropyl)-5H-pyrido[4,3-b]indole]
Tx/tau/amyloid correlation (tau/amyloid): yes
CNS selectivity panel: Dopamine transp. (Dopamine transp.): transp.(34%)
IC50 (AchE): 5000 nM
GM Intensity (comp. with W372) [1]: 14%
CNS selectivity panel: Norepinephrine transp. (Norepinephrine transp.): transp.(49%)
inhibition at 1 µM (MAO-A): 19%
Brain uptake [2]: yes (4 rats, 4 mice)
Brain uptake [3]: excellent
CNS selectivity panel: Serotonin 5-HT2c (Serotonin 5-HT2c): (33%)
CNS selectivity panel: Glutamate, NMDA (Glutamate, NMDA): (44%) Monoamine
background (normal brain 32566) PSL/mm2 [4]: 97 PSL/mm2
selectivity (tau/Ab) (tau/Ab): 17x
human hepatocytes (metabolic stability) (human hepatocytes): stable
CNS selectivity panel: Monoamine transp. (Monoamine transp.): transp. (41%)
inhibition at 1 µM (MAO-B): 0%
Kd (tau): 30 nM

— patent US20150030540A1 (Eli Lilly and Company, priority 2008, published 2015)
